From patent US5527940A, “Methanediphosphonate derivative, its manufacturing process and its pharmaceutical applications” (Toray Industries, Inc., priority 1991, dated 1996)

Test system: IL-1 stimulated release of proteoglycan from cartilage cells
Assay: Proteoglycan release from IL-1 stimulated rabbit knee joint cartilage cells (35S label)
Type: cell-based, New Zealand White rabbits
Conditions: 100 μM compound, IL-1β 30 units/ml, 24 hours
Method: When cartilage from a rabbit knee joint is isolated and cultured followed by IL-1 stimulation, proteoglycan of glycoprotein, the major component of cartilage, is released. The IL-1 inhibitory action of compounds of the present invention was measured as described below using this action as an index.
Exsanguination was performed on 3 week old, male New Zealand White rabbits having body weights of 250-300 g under diethyl ether anesthesia, after which the knee joints were removed. The cartilage portions of the knee joints were removed with a scalpel and immersed in a CMF solution comprising 0.14M sodium chloride, 4 mM potassium chloride, 0.4 mM sodium dihydrogen phosphate, 12 mM sodium bicarbonate, 0.2 mM potassium dihydrogen phosphate and 11 mM glucose. This cartilage was then placed in 0.1% EDTA and incubated for 20 minutes at 37° C. […]
The cell layer was dissolved by adding 200 μg of pronase E and treating for 24 hours at 37° C. […] The precipitated proteoglycan was collected in a glass filter, added to a liquid scintillator and counted with a liquid scintillation counter. […]
Each of the resulting counts were expressed as a percentage of the count obtained from the initially added inorganic sulfuric acid. […]

## CSc1ccc(SC(P(=O)(O)O)P(=O)(O)O)cc1 [Example 2, (4-methylthiophenyl)thiomethanediphosphonic acid]
Cell layer
  Proteoglycan count, Cell Layer (percentage of the count from initially added inorganic sulfuric acid): 0.28 ± 0.019%
Cell supernatant
  Proteoglycan count, Cell Supernatant (percentage of the count from initially added inorganic sulfuric acid): 0.74 ± 0.061%
